Test results taken from ChEMBL document CHEMBL4414672, “Synthesis of certain benzothieno[3,2-d]pyrimidine derivatives as a selective SIRT2 inhibitors” (Eur J Med Chem, 2020).

Columns and labels:
Type in all cases: functional
[1] = test system: COLO 205; assay: Growth inhibition of human COLO205 cells at 10^-5 M incubated for 48 hrs by sulforhodamine B assay; conditions: COLO 205, 48 h, read-out: GI
[2] = test system: M14; assay: Growth inhibition of human M14 cells at 10^-5 M incubated for 48 hrs by sulforhodamine B assay; conditions: M14, 48 h, read-out: GI
[3] = test system: UACC-62; assay: Growth inhibition of human UACC62 cells at 10^-5 M incubated for 48 hrs by sulforhodamine B assay; conditions: UACC-62, 48 h, read-out: GI
[4] = test system: HCC 2998; assay: Growth inhibition of human HCC2998 cells at 10^-5 M incubated for 48 hrs by sulforhodamine B assay; conditions: HCC 2998, 48 h, read-out: GI
[5] = test system: NCI-H322M; assay: Growth inhibition of human NCI-H322M cells at 10^-5 M incubated for 48 hrs by sulforhodamine B assay; conditions: read-out: GI
[6] = test system: DU-145; assay: Growth inhibition of human DU145 cells at 10^-5 M incubated for 48 hrs by sulforhodamine B assay; conditions: DU-145, 48 h, read-out: GI
[7] = test system: EKVX; assay: Growth inhibition of human EKVX cells at 10^-5 M incubated for 48 hrs by sulforhodamine B assay; conditions: read-out: GI
[8] = test system: U-251; assay: Growth inhibition of human U251 cells at 10^-5 M incubated for 48 hrs by sulforhodamine B assay; conditions: U-251, 48 h, read-out: GI
[9] = test system: OVCAR-3; assay: Growth inhibition of human OVCAR3 cells at 10^-5 M incubated for 48 hrs by sulforhodamine B assay; conditions: OVCAR-3, 48 h, read-out: GI
[10] = test system: HOP-92; assay: Growth inhibition of human HOP92 cells at 10^-5 M incubated for 48 hrs by sulforhodamine B assay; conditions: HOP-92, 48 h, read-out: GI
[11] = test system: MCF7; assay: Growth inhibition of human MCF7 cells at 10^-5 M incubated for 48 hrs by sulforhodamine B assay; conditions: MCF7, 48 h, read-out: GI
[12] = test system: ACHN; assay: Growth inhibition of human ACHN cells at 10^-5 M incubated for 48 hrs by sulforhodamine B assay; conditions: read-out: GI
[13] = test system: SW-620; assay: Growth inhibition of human SW620 cells at 10^-5 M incubated for 48 hrs by sulforhodamine B assay; conditions: SW-620, 48 h, read-out: GI
[14] = test system: NCI-H23; assay: Growth inhibition of human NCI-H23 cells at 10^-5 M incubated for 48 hrs by sulforhodamine B assay; conditions: NCI-H23, 48 h, read-out: GI
[15] = test system: K562; assay: Growth inhibition of human K562 cells at 10^-5 M incubated for 48 hrs by sulforhodamine B assay; conditions: K562, 48 h, read-out: GI
[16] = test system: A498; assay: Growth inhibition of human A498 cells at 10^-5 M incubated for 48 hrs by sulforhodamine B assay; conditions: A498, 48 h, read-out: GI
[17] = test system: RXF 393; assay: Growth inhibition of human RXF393 cells at 10^-5 M incubated for 48 hrs by sulforhodamine B assay; conditions: RXF 393, 48 h, read-out: GI
[18] = test system: SK-OV-3; assay: Growth inhibition of human SKOV3 cells at 10^-5 M incubated for 48 hrs by sulforhodamine B assay; conditions: SK-OV-3, 48 h, read-out: GI
[19] = test system: Malme-3M; assay: Growth inhibition of human MALME-3M cells at 10^-5 M incubated for 48 hrs by sulforhodamine B assay; conditions: read-out: GI
[20] = test system: OVCAR-5; assay: Growth inhibition of human OVCAR5 cells at 10^-5 M incubated for 48 hrs by sulforhodamine B assay; conditions: OVCAR-5, 48 h, read-out: GI
[21] = test system: OVCAR-8; assay: Growth inhibition of human OVCAR8 cells at 10^-5 M incubated for 48 hrs by sulforhodamine B assay; conditions: OVCAR-8, 48 h, read-out: GI
[22] = test system: SK-MEL-5; assay: Growth inhibition of human SK-MEL-5 cells at 10^-5 M incubated for 48 hrs by sulforhodamine B assay; conditions: SK-MEL-5, 48 h, read-out: GI
[23] = test system: SNB-75; assay: Growth inhibition of human SNB75 cells at 10^-5 M incubated for 48 hrs by sulforhodamine B assay; conditions: SNB-75, 48 h, read-out: GI
[24] = test system: Hs-578T; assay: Growth inhibition of human Hs 578T cells at 10^-5 M incubated for 48 hrs by sulforhodamine B assay; conditions: read-out: GI
[25] = test system: NCI-H226; assay: Growth inhibition of human NCI-H226 cells at 10^-5 M incubated for 48 hrs by sulforhodamine B assay; conditions: NCI-H226, 48 h, read-out: GI
[26] = test system: TK-10; assay: Growth inhibition of human TK10 cells at 10^-5 M incubated for 48 hrs by sulforhodamine B assay; conditions: TK-10, 48 h, read-out: GI
[27] = test system: HT-29; assay: Growth inhibition of human HT-29 cells at 10^-5 M incubated for 48 hrs by sulforhodamine B assay; conditions: HT-29, 48 h, read-out: GI
[28] = test system: A549; assay: Growth inhibition of human A549/ATCC cells at 10^-5 M incubated for 48 hrs by sulforhodamine B assay; conditions: A549, 48 h, read-out: GI
[29] = test system: SN12C; assay: Growth inhibition of human SN12C cells at 10^-5 M incubated for 48 hrs by sulforhodamine B assay; conditions: read-out: GI
[30] = test system: MDA-MB-468; assay: Growth inhibition of human MDA-MB-468 cells at 10^-5 M incubated for 48 hrs by sulforhodamine B assay; conditions: MDA-MB-468, 48 h, read-out: GI
[31] = test system: MDA-MB-231; assay: Growth inhibition of human MDA-MB-231 cells at 10^-5 M incubated for 48 hrs by sulforhodamine B assay; conditions: MDA-MB-231, 48 h, read-out: GI
[32] = test system: BT-549; assay: Growth inhibition of human BT549 cells at 10^-5 M incubated for 48 hrs by sulforhodamine B assay; conditions: BT-549, 48 h, read-out: GI
[33] = test system: NCI/ADR-RES; assay: Growth inhibition of human NCI/ADR-RES cells at 10^-5 M incubated for 48 hrs by sulforhodamine B assay; conditions: read-out: GI
[34] = test system: PC-3; assay: Growth inhibition of human PC3 cells at 10^-5 M incubated for 48 hrs by sulforhodamine B assay; conditions: PC-3, 48 h, read-out: GI
[35] = test system: SF-268; assay: Growth inhibition of human SF268 cells at 10^-5 M incubated for 48 hrs by sulforhodamine B assay; conditions: SF-268, 48 h, read-out: GI
[36] = test system: IGROV-1; assay: Growth inhibition of human IGROV1 cells at 10^-5 M incubated for 48 hrs by sulforhodamine B assay; conditions: IGROV-1, 48 h, read-out: GI
[37] = test system: UACC-257; assay: Growth inhibition of human UACC257 cells at 10^-5 M incubated for 48 hrs by sulforhodamine B assay; conditions: UACC-257, 48 h, read-out: GI
[38] = test system: SR; assay: Growth inhibition of human SR cells at 10^-5 M incubated for 48 hrs by sulforhodamine B assay; conditions: read-out: GI
[39] = test system: CAKI-1; assay: Growth inhibition of human Caki1 cells at 10^-5 M incubated for 48 hrs by sulforhodamine B assay; conditions: CAKI-1, 48 h, read-out: GI

## O=C1/C(=C\c2cccc(Br)c2)Sc2ccc(Cl)cc21
[1]
  inhibition of growth at 10 µM: -6.12%
[2]
  inhibition of growth at 10 µM: -1.09%
[3]
  inhibition of growth at 10 µM: 2.69%
[4]
  inhibition of growth at 10 µM: -3.41%
[5]
  inhibition of growth at 10 µM: 9.44%
[6]
  inhibition of growth at 10 µM: -12.3%
[7]
  inhibition of growth at 10 µM: -0.43%
[8]
  inhibition of growth at 10 µM: -3.45%
[9]
  inhibition of growth at 10 µM: -12.1%
[10]
  inhibition of growth at 10 µM: -15.1%
[11]
  inhibition of growth at 10 µM: -12.3%
[12]
  inhibition of growth at 10 µM: 3.66%
[13]
  inhibition of growth at 10 µM: -1.25%
[14]
  inhibition of growth at 10 µM: 8.26%
[15]
  inhibition of growth at 10 µM: -7.99%
[16]
  inhibition of growth at 10 µM: 13.5%
[17]
  inhibition of growth at 10 µM: -5.49%
[18]
  inhibition of growth at 10 µM: 5.77%
[19]
  inhibition of growth at 10 µM: -1.08%
[20]
  inhibition of growth at 10 µM: -9.67%
[21]
  inhibition of growth at 10 µM: -3.52%
[22]
  inhibition of growth at 10 µM: 1.63%
[23]
  inhibition of growth at 10 µM: 2.14%
[24]
  inhibition of growth at 10 µM: -8.14%
[25]
  inhibition of growth at 10 µM: 10.4%
[26]
  inhibition of growth at 10 µM: -29.1%
[27]
  inhibition of growth at 10 µM: -10.6%
[28]
  inhibition of growth at 10 µM: 2.51%
[29]
  inhibition of growth at 10 µM: -0.02%
[30]
  inhibition of growth at 10 µM: -18.6%
[31]
  inhibition of growth at 10 µM: -3.31%
[32]
  inhibition of growth at 10 µM: -26.2%
[33]
  inhibition of growth at 10 µM: -2.33%
[34]
  inhibition of growth at 10 µM: -1.54%
[35]
  inhibition of growth at 10 µM: 2.33%
[36]
  inhibition of growth at 10 µM: -2.64%
[37]
  inhibition of growth at 10 µM: -6.58%
[38]
  inhibition of growth at 10 µM: -4.42%
[39]
  inhibition of growth at 10 µM: 10.1%
